Where two headings read alike, the source gives them in different places.
Assays:
NRF2 = details: cited from earlier work; for Nrf2 TF activity (in words): Tox21 assay
[1] = tested on: HEK293 and HepG2 cell lines
HEK293 cells [2] = assay: cells; details: Homo sapiens
HEK293 cells [3] = assay: cells; details: Homo sapiens; remark: listed apart in the source
HEK293 cells [4] = details: HEK293 glo
HEK293 cells [5] = details: HEK293 flor
HepG2 cells [6] = assay: cells; details: Homo sapiens
HepG2 cells [7] = details: HepG2 glo
HepG2 cells [8] = assay: CellTox Green Cytotoxicity Assay (flor) in HepG2, HepG2[flor]; assay type: cell-based, human; details: HepG2 flor; for EC50: Homo sapiens, given as negative log-scale values;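 on hepg2 flor emax 0: percent activity versus DMSO-only wells with baseline rescaled to 0%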;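 on hepg2 flor emax 40: percent activity versus DMSO-only wells with baseline rescaled to 0%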

O=C(OC1CCCCC1)c1ccccc1C(=O)OC1CCCCC1 [Dicyclohexyl phthalate]
increase NRF2 TF activity, POD potency (NRF2): 4.18 log10(M)*-1

CC12CC1(C)C(=O)N(c1cc(Cl)cc(Cl)c1)C2=O (stereo not shown) [procymidone, reference compound]
Nrf2 TF activity (in words) (NRF2): Weak Nrf2 activity | cytotoxicity kinetics activity profile in the four real-time cytotoxicity assays [1]: no activity in all four real-time cytotoxicity assays

CC(C)=CCC/C(C)=C/CO [Geraniol]
EC50 (HEK293 cells [2]; HEK293, read-out: hek293_glo_ec50_0): > 38.3 µM | EC50 (HEK293 cells [2]; HEK293, read-out: hek293_glo_ec50_8): > 38.3 µM | EC50 (HEK293 cells [2]; HEK293, read-out: hek293_glo_ec50_16): > 38.3 µM | EC50 (HEK293 cells [2]; HEK293, read-out: hek293_glo_ec50_24): > 38.3 µM | EC50 (HEK293 cells [2]; HEK293, read-out: hek293_glo_ec50_32): > 38.3 µM | EC50 (HEK293 cells [2]; HEK293, read-out: hek293_glo_ec50_40): > 38.3 µM | EC50 (HEK293 cells [3]; HEK293, read-out: hek293_flor_ec50_0): > 38.3 µM | EC50 (HEK293 cells [3]; HEK293, read-out: hek293_flor_ec50_8): > 38.3 µM | EC50 (HEK293 cells [3]; HEK293, read-out: hek293_flor_ec50_16): > 38.3 µM | EC50 (HEK293 cells [3]; HEK293, read-out: hek293_flor_ec50_24): > 38.3 µM | EC50 (HEK293 cells [3]; HEK293, read-out: hek293_flor_ec50_32): > 38.3 µM | EC50 (HEK293 cells [3]; HEK293, read-out: hek293_flor_ec50_40): > 38.3 µM | hek293_glo_auc (HEK293 cells [4]): 0 | hek293_glo_time (HEK293 cells [4]): 48 | hek293_glo_bin (HEK293 cells [4]; kinetics bin): inactive | hek293_glo_emax_0 (HEK293 cells [4]; time point 0): 0 | hek293_glo_pod_0 (HEK293 cells [4]; time point 0): -4.417 | hek293_glo_wauc_0 (HEK293 cells [4]; time point 0): 0 | hek293_glo_emax_8 (HEK293 cells [4]; time point 8): 0 | hek293_glo_pod_8 (HEK293 cells [4]; time point 8): -4.417 | hek293_glo_wauc_8 (HEK293 cells [4]; time point 8): 0 | hek293_glo_emax_16 (HEK293 cells [4]; time point 16): 0 | hek293_glo_pod_16 (HEK293 cells [4]; time point 16): -4.417 | hek293_glo_wauc_16 (HEK293 cells [4]; time point 16): 0 | hek293_glo_emax_24 (HEK293 cells [4]; time point 24): 0 | hek293_glo_pod_24 (HEK293 cells [4]; time point 24): -4.417 | hek293_glo_wauc_24 (HEK293 cells [4]; time point 24): 0 | hek293_glo_emax_32 (HEK293 cells [4]; time point 32): 0 | hek293_glo_pod_32 (HEK293 cells [4]; time point 32): -4.417 | hek293_glo_wauc_32 (HEK293 cells [4]; time point 32): 0 | hek293_glo_emax_40 (HEK293 cells [4]; time point 40): 0 | hek293_glo_pod_40 (HEK293 cells [4]; time point 40): -4.417 | hek293_glo_wauc_40 (HEK293 cells [4]; time point 40): 0 | hek293_flor_auc (HEK293 cells [5]): 0 | hek293_flor_time (HEK293 cells [5]): 48 | hek293_flor_bin (HEK293 cells [5]; kinetics bin): inactive | hek293_flor_emax_0 (HEK293 cells [5]; time point 0): 0 | hek293_flor_pod_0 (HEK293 cells [5]; time point 0): -4.417 | hek293_flor_wauc_0 (HEK293 cells [5]; time point 0): 0 | hek293_flor_emax_8 (HEK293 cells [5]; time point 8): 0 | hek293_flor_pod_8 (HEK293 cells [5]; time point 8): -4.417 | hek293_flor_wauc_8 (HEK293 cells [5]; time point 8): 0 | hek293_flor_emax_16 (HEK293 cells [5]; time point 16): 0 | hek293_flor_pod_16 (HEK293 cells [5]; time point 16): -4.417 | hek293_flor_wauc_16 (HEK293 cells [5]; time point 16): 0 | hek293_flor_emax_24 (HEK293 cells [5]; time point 24): 0 | hek293_flor_pod_24 (HEK293 cells [5]; time point 24): -4.417 | hek293_flor_wauc_24 (HEK293 cells [5]; time point 24): 0 | hek293_flor_emax_32 (HEK293 cells [5]; time point 32): 0 | hek293_flor_pod_32 (HEK293 cells [5]; time point 32): -4.417 | hek293_flor_wauc_32 (HEK293 cells [5]; time point 32): 0 | hek293_flor_emax_40 (HEK293 cells [5]; time point 40): 0 | hek293_flor_pod_40 (HEK293 cells [5]; time point 40): -4.417 | hek293_flor_wauc_40 (HEK293 cells [5]; time point 40): 0 | EC50 (HepG2 cells [6]; HepG2, read-out: hepg2_glo_ec50_0): > 38.3 µM | EC50 (HepG2 cells [6]; HepG2, read-out: hepg2_glo_ec50_8): > 38.3 µM | EC50 (HepG2 cells [6]; HepG2, read-out: hepg2_glo_ec50_16): > 38.3 µM | EC50 (HepG2 cells [6]; HepG2, read-out: hepg2_glo_ec50_24): > 38.3 µM | EC50 (HepG2 cells [6]; HepG2, read-out: hepg2_glo_ec50_32): > 38.3 µM | EC50 (HepG2 cells [6]; HepG2, read-out: hepg2_glo_ec50_40): > 38.3 µM | hepg2_glo_auc (HepG2 cells [7]): 0 | hepg2_glo_time (HepG2 cells [7]): 48 | hepg2_glo_bin (HepG2 cells [7]; kinetics bin): inactive | hepg2_glo_emax_0 (HepG2 cells [7]; time point 0): 0 | hepg2_glo_pod_0 (HepG2 cells [7]; time point 0): -4.417 | hepg2_glo_wauc_0 (HepG2 cells [7]; time point 0): 0 | hepg2_glo_emax_8 (HepG2 cells [7]; time point 8): 0 | hepg2_glo_pod_8 (HepG2 cells [7]; time point 8): -4.417 | hepg2_glo_wauc_8 (HepG2 cells [7]; time point 8): 0 | hepg2_glo_emax_16 (HepG2 cells [7]; time point 16): 0 | hepg2_glo_pod_16 (HepG2 cells [7]; time point 16): -4.417 | hepg2_glo_wauc_16 (HepG2 cells [7]; time point 16): 0 | hepg2_glo_emax_24 (HepG2 cells [7]; time point 24): 0 | hepg2_glo_pod_24 (HepG2 cells [7]; time point 24): -4.417 | hepg2_glo_wauc_24 (HepG2 cells [7]; time point 24): 0 | hepg2_glo_emax_32 (HepG2 cells [7]; time point 32): 0 | hepg2_glo_pod_32 (HepG2 cells [7]; time point 32): -4.417 | hepg2_glo_wauc_32 (HepG2 cells [7]; time point 32): 0 | hepg2_glo_emax_40 (HepG2 cells [7]; time point 40): 0 | hepg2_glo_pod_40 (HepG2 cells [7]; time point 40): -4.417 | hepg2_glo_wauc_40 (HepG2 cells [7]; time point 40): 0 | information ([1]; any activity in any time point/assay): 0 | hepg2_flor_auc (HepG2 cells [8]): 0 | hepg2_flor_time (HepG2 cells [8]): 48 | hepg2_flor_bin (HepG2 cells [8]; kinetics bin): inactive | hepg2_flor_emax_0 (HepG2 cells [8]; time point 0): 0 | hepg2_flor_pod_0 (HepG2 cells [8]; time point 0): -4.417 | hepg2_flor_wauc_0 (HepG2 cells [8]; time point 0): 0 | hepg2_flor_emax_8 (HepG2 cells [8]; time point 8): 0 | hepg2_flor_pod_8 (HepG2 cells [8]; time point 8): -4.417 | hepg2_flor_wauc_8 (HepG2 cells [8]; time point 8): 0 | hepg2_flor_emax_16 (HepG2 cells [8]; time point 16): 0 | hepg2_flor_pod_16 (HepG2 cells [8]; time point 16): -4.417 | hepg2_flor_wauc_16 (HepG2 cells [8]; time point 16): 0 | hepg2_flor_emax_24 (HepG2 cells [8]; time point 24): 0 | hepg2_flor_pod_24 (HepG2 cells [8]; time point 24): -4.417 | hepg2_flor_wauc_24 (HepG2 cells [8]; time point 24): 0 | hepg2_flor_emax_32 (HepG2 cells [8]; time point 32): 0 | hepg2_flor_pod_32 (HepG2 cells [8]; time point 32): -4.417 | hepg2_flor_wauc_32 (HepG2 cells [8]; time point 32): 0 | hepg2_flor_emax_40 (HepG2 cells [8]; time point 40): 0 | hepg2_flor_pod_40 (HepG2 cells [8]; time point 40): -4.417 | hepg2_flor_wauc_40 (HepG2 cells [8]; time point 40): 0 | EC50 (HepG2 cells [8]; time point 0, read-out: hepg2_flor_ec50_0): > 38.3 µM | EC50 (HepG2 cells [8]; time point 8, read-out: hepg2_flor_ec50_8): > 38.3 µM | EC50 (HepG2 cells [8]; time point 16, read-out: hepg2_flor_ec50_16): > 38.3 µM | EC50 (HepG2 cells [8]; time point 24, read-out: hepg2_flor_ec50_24): > 38.3 µM | EC50 (HepG2 cells [8]; time point 32, read-out: hepg2_flor_ec50_32): > 38.3 µM | EC50 (HepG2 cells [8]; time point 40, read-out: hepg2_flor_ec50_40): > 38.3 µM

Phenol, isopropylated, phosphate (3:1)
increase NRF2 TF activity, POD potency (NRF2): 4.21 log10(M)*-1

CC(C)C(=O)Nc1ccc([N+](=O)[O-])c(C(F)(F)F)c1 [Flutamide, reference compound]
Nrf2 TF activity (in words) (NRF2): increased Nrf2 TF activity | cytotoxicity kinetics activity profile in the four real-time cytotoxicity assays ([1]; human): active only in HEK293[glo]

CC(C)(O)C(=O)Nc1ccc([N+](=O)[O-])c(C(F)(F)F)c1 [Hydroxyflutamide, reference compound]
Nrf2 TF activity (in words) (NRF2): increased Nrf2 TF activity | cytotoxicity kinetics activity profile in the four real-time cytotoxicity assays ([1]; human): active only in HEK293[glo]

CC/C(=C(/CC)c1ccc(O)cc1)c1ccc(O)cc1 [Diethylstilbestrol, reference compound]
Nrf2 TF activity (in words) (NRF2): increased Nrf2 TF activity | cytotoxicity kinetics activity profile in the four real-time cytotoxicity assays ([1]; human): active only in HEK293[glo]

O.[Br-].[Br-].c1cc[n+]2c(c1)-c1cccc[n+]1CC2 [Diquat dibromide monohydrate]
increase NRF2 TF activity, POD potency (NRF2): 5.17 log10(M)*-1

CC(=O)O[C@H]1CC[C@@]2(C)C(=CC[C@@H]3[C@@H]2CC[C@]2(C)C(C(C)=O)=CC[C@@H]32)C1 [Dehydropregnenolone acetate]
increase NRF2 TF activity, POD potency (NRF2): 4.85 log10(M)*-1

CC(C)(c1ccc(O)cc1)c1ccc(O)cc1 [Bisphenol A]
Nrf2 TF activity (in words) (NRF2): increased Nrf2 TF activity | cytotoxicity kinetics activity profile in the four real-time cytotoxicity assays ([1]; human): active only in HEK293[glo]

O=C(OCCN1CCOCC1)c1cccnc1Nc1cccc(C(F)(F)F)c1 [Morniflumate, reference compound]
increase NRF2 TF activity, POD potency (NRF2): 4.54 log10(M)*-1
